Target: T1, human ferroportin (Homo sapiens, UniProt Q9NP59)
T1 construct: luciferase reporter (read with the Nano-Glo Luciferase Assay System); expressed in transfected cells; host or cells: CHO cells, stably transfected, expression induced with doxycycline
T1 sequence (Q9NP59 1-571): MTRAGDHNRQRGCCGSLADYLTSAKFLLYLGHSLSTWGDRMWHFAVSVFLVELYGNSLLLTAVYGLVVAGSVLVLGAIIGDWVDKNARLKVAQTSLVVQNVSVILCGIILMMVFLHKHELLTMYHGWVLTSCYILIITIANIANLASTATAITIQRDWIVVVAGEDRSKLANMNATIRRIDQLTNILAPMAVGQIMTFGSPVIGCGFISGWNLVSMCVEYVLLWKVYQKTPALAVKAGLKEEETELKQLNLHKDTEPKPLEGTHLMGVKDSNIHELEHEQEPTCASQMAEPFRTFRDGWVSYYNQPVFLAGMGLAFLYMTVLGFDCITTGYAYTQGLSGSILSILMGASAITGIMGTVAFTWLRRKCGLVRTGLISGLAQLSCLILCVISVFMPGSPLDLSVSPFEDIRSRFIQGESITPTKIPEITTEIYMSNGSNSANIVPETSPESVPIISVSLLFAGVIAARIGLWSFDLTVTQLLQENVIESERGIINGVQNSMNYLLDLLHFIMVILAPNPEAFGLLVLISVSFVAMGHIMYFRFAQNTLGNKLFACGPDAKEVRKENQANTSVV
Assay: Biological in-vitro ferroportin internalization assay (luciferase reporter)
Type: cell-based
Details: average pEC50; stably-transfected CHO cell line expressing human ferroportin tagged to a luciferase reporter; 6 h incubation with test compound
Procedure: The protocol for this assay is generally as described in WO2018/128828, incorporated herein by reference in its entirety. Functional internalization of ferroportin protein was measured using a stably-transfected CHO cell line expressing the human ferroportin tagged to a luciferase reporter. Cells were plated for 24 h in the presence of ferric ammonium citrate (FAC). Ferroportin protein expression was induced with doxycycline for 24 h. The next day, the compounds were added. Test compounds were dissolved in DMSO. Cells were incubated with the test compounds for 6 h, and subsequently luciferase activity was measured using the Nano-Glo Luciferase Assay System and Glomax (Promega, Madison, Wis.). The average pEC50 was determined for the test compounds.

Row | Compound | pEC50
1 | Cc1ccnc(-c2nc3c(c(N(C)CC(=O)NC(C)(C)C)n2)CCC3)c1 [Compound 24, N-tert-butyl-2-{methyl[2-(4-methylpyridin-2-yl)-5H,6H,7H-cyclopenta[d]pyrimidin-4-yl]amino}acetamide] | 7.6
2 | CN(CC(=O)NC1(C)CCCCC1)c1nc(-c2ccccn2)nc2c1CCC2 [Compound 25, 2-{methyl[2-(pyridin-2-yl)-5H,6H,7H-cyclopenta[d]pyrimidin-4-yl]amino}-N-(1-methylcyclohexyl)acetamide] | 7.1
3 | O=C(NC1CCCCC1)C1CN(c2nc(-c3ccccn3)nc3c2CCC3)C1 [Compound 29, N-cyclohexyl-1-[2-(pyridin-2-yl)-5H,6H,7H-cyclopenta[d]pyrimidin-4-yl]azetidine-3-carboxamide] | 5.9
4 | CN(CC(=O)Nc1ccc2c(c1)OC(F)(F)O2)c1nc(-c2ccccn2)nc2c1CCC2 [Compound 32, N-(2,2-difluoro-2H-1,3-benzodioxol-5-yl)-2-{methyl[2-(pyridin-2-yl)-5H,6H,7H-cyclopenta[d]pyrimidin-4-yl]amino}acetamide] | 7.2
5 | CC(C)(C)NC(=O)CNc1nc(-c2ncccn2)nc2c1CCC2 [Compound 33, N-tert-butyl-2-{[2-(pyrimidin-2-yl)-5H,6H,7H-cyclopenta[d]pyrimidin-4-yl]amino}acetamide] | 5.7
6 | COc1ccnc(-c2nc3c(c(N(C)CC(=O)NC(C)(C)C)n2)CCC3)c1 [Compound 34, N-tert-butyl-2-{[2-(4-methoxypyridin-2-yl)-5H,6H,7H-cyclopenta[d]pyrimidin-4-yl](methyl)amino}acetamide] | 7.9
7 | COCc1ccnc(-c2nc3c(c(N(C)CC(=O)NC(C)(C)C)n2)CCC3)c1 [Compound 35, N-tert-butyl-2-({2-[4-(methoxymethyl)pyridin-2-yl]-5H,6H,7H-cyclopenta[d]pyrimidin-4-yl}(methyl)amino)acetamide] | 7
8 | CCN(CC(=O)NC(C)(C)C)c1nc(-c2ccccn2)nc2c1CCC2 [Compound 36, N-tert-butyl-2-{ethyl[2-(pyridin-2-yl)-5H,6H,7H-cyclopenta[d]pyrimidin-4-yl]amino}acetamide] | 7.3
9 | CN(CC(=O)NC(C)(C)C)c1nc(-c2cccc(OCCO)n2)nc2c1CCC2 [Compound 39, N-tert-butyl-2-({2-[6-(2-hydroxyethoxy)pyridin-2-yl]-5H,6H,7H-cyclopenta[d]pyrimidin-4-yl}(methyl)amino)acetamide] | 6.3
10 | CN(CC(=O)NC(C)(C)C)c1nc(-c2cc(CO)ccn2)nc2c1CCC2 [Compound 41, N-tert-butyl-2-({2-[4-(hydroxymethyl)pyridin-2-yl]-5H,6H,7H-cyclopenta[d]pyrimidin-4-yl}(methyl)amino)acetamide] | 7.3
11 | Cc1ccnc(-c2nc3c(c(N(C)CC(=O)NC(C)(C)C)n2)CCCC3)c1 [Compound 42, N-tert-butyl-2-{methyl[2-(4-methylpyridin-2-yl)-5,6,7,8-tetrahydroquinazolin-4-yl]amino}acetamide] | 7.3
12 | Cc1ccnc(-c2nc3c(c(N4CCCO[C@H]5CCC[C@@H]54)n2)CCC3)c1 [Compound 45, 2-{4-[(5aS,8aS)-octahydro-2H-cyclopenta[b][1,4]oxazepin-5-yl]-5H,6H,7H-cyclopenta[d]pyrimidin-2-yl}-4-methylpyridine] | 7.2
13 | O=C1CCCCCN1c1nc(-c2ccccn2)nc2c1CCC2 [Compound 46, 1-[2-(pyridin-2-yl)-5H,6H,7H-cyclopenta[d]pyrimidin-4-yl]azepan-2-one] | 5.1
14 | O=C1CN(c2nc(-c3ccccn3)nc3c2CCC3)CCCN1 [Compound 47, 4-[2-(pyridin-2-yl)-5H,6H,7H-cyclopenta[d]pyrimidin-4-yl]-1,4-diazepan-2-one] | 5.7
15 | Cc1ccnc(-c2nc3c(c(N4CCCO[C@@H]5CCC[C@@H]54)n2)CCC3)c1 [Compound 49, 2-{4-[(5aS,8aR)-octahydro-2H-cyclopenta[b][1,4]oxazepin-5-yl]-5H,6H,7H-cyclopenta[d]pyrimidin-2-yl}-4-methylpyridine] | 7.1
16 | O=C1CCN(c2nc(-c3ccccn3)nc3c2CCC3)CCN1 [Compound 50, 1-[2-(pyridin-2-yl)-5H,6H,7H-cyclopenta[d]pyrimidin-4-yl]-1,4-diazepan-5-one] | 5.6
17 | C[C@H](C(=O)NC(C)(C)C)N(C)c1nc(-c2ccccn2)nc2c1CCC2 [Compound 51, (2R)—N-tert-butyl-2-{methyl[2-(pyridin-2-yl)-5H,6H,7H-cyclopenta[d]pyrimidin-4-yl]amino}propanamide] | 7.5
18 | COc1ccnc(-c2nc3c(c(N4CCCO[C@@H]5CCC[C@@H]54)n2)CCC3)c1 [Compound 54, 2-{4-[(5aS,8aR)-octahydro-2H-cyclopenta[b][1,4]oxazepin-5-yl]-5H,6H,7H-cyclopenta[d]pyrimidin-2-yl}-4-methoxypyridine] | 6.9
19 | CC1(C)CC[C@@H](Nc2nc(-c3ccccn3)nc3c2CCC3)C(=O)N1 [Compound 55, (3R)-6,6-dimethyl-3-{[2-(pyridin-2-yl)-5H,6H,7H-cyclopenta[d]pyrimidin-4-yl]amino}piperidin-2-one] | 6.3

Further lines, results first:

Row | pEC50 | Compound
20 | 6.6 | CN(CC(=O)NC1CCCOC1)c1nc(-c2ccccn2)nc2c1CCC2 (centres unmarked) [Compound 26, 2-{methyl[2-(pyridin-2-yl)-5H,6H,7H-cyclopenta[d]pyrimidin-4-yl]amino}-N-(oxan-3-yl)acetamide]
21 | 6.8 | CN(CC(=O)NCc1ccccc1)c1nc(-c2ccccn2)nc2c1CCC2 [Compound 27, N-benzyl-2-{methyl[2-(pyridin-2-yl)-5H,6H,7H-cyclopenta[d]pyrimidin-4-yl]amino}acetamide]
22 | 5.9 | CN(CC(=O)NC(C)(C)C)c1nc(-c2cnc(O)cn2)nc2c1CCC2 [Compound 28, N-tert-butyl-2-{[2-(5-hydroxypyrazin-2-yl)-5H,6H,7H-cyclopenta[d]pyrimidin-4-yl](methyl)amino}acetamide]
23 | 5.7 | Cc1ccnc(-c2nc3c(c(N4CC(C(=O)NC5CCCCC5)C4)n2)CCC3)c1 [Compound 30, N-cyclohexyl-1-[2-(4-methylpyridin-2-yl)-5H,6H,7H-cyclopenta[d]pyrimidin-4-yl]azetidine-3-carboxamide]
24 | 6.2 | CN1CCC(NC(=O)CN(C)c2nc(-c3ccccn3)nc3c2CCC3)C1=O (centres unmarked) [Compound 31, N-(1-methyl-2-oxopyrrolidin-3-yl)-2-{methyl[2-(pyridin-2-yl)-5H,6H,7H-cyclopenta[d]pyrimidin-4-yl]amino}acetamide]
25 | 6.6 | CC(C)(C)NC(=O)CN(CCO)c1nc(-c2ccccn2)nc2c1CCC2 [Compound 37, N-tert-butyl-2-[(2-hydroxyethyl)[2-(pyridin-2-yl)-5H,6H,7H-cyclopenta[d]pyrimidin-4-yl]amino]acetamide]
26 | 6.6 | CN(CC(=O)NCc1ccccn1)c1nc(-c2ccccn2)nc2c1CCC2 [Compound 38, 2-{methyl[2-(pyridin-2-yl)-5H,6H,7H-cyclopenta[d]pyrimidin-4-yl]amino}-N-[(pyridin-2-yl)methyl]acetamide]
27 | 7.1 | CN(CC(=O)NC(C)(C)C)c1nc(-c2ccc(OCCO)cn2)nc2c1CCC2 [Compound 40, N-tert-butyl-2-({2-[5-(2-hydroxyethoxy)pyridin-2-yl]-5H,6H,7H-cyclopenta[d]pyrimidin-4-yl}(methyl)amino)acetamide]
28 | 7 | CN(CC(=O)NC(C)(C)C)c1nc(-c2ccc(CCO)cn2)nc2c1CCC2 [Compound 43, N-tert-butyl-2-({2-[5-(2-hydroxyethyl)pyridin-2-yl]-5H,6H,7H-cyclopenta[d]pyrimidin-4-yl}(methyl)amino)acetamide]
29 | 7.9 | CN(CC(=O)NC(C)(C)C)c1nc(-c2cc(OCCO)ccn2)nc2c1CCC2 [Compound 44, N-tert-butyl-2-({2-[4-(2-hydroxyethoxy)pyridin-2-yl]-5H,6H,7H-cyclopenta[d]pyrimidin-4-yl}(methyl)amino)acetamide]
30 | 6.8 | c1ccc(-c2nc3c(c(N4CCCO[C@@H]5CCC[C@@H]54)n2)CCC3)nc1 [Compound 48, 2-{4-[(5aS,8aR)-octahydro-2H-cyclopenta[b][1,4]oxazepin-5-yl]-5H,6H,7H-cyclopenta[d]pyrimidin-2-yl}pyridine]
31 | 6.8 | C[C@@H](C(=O)NC(C)(C)C)N(C)c1nc(-c2ccccn2)nc2c1CCC2 [Compound 52, (2S)—N-tert-butyl-2-{methyl[2-(pyridin-2-yl)-5H,6H,7H-cyclopenta[d]pyrimidin-4-yl]amino}propanamide]
32 | 6.6 | COc1ccnc(-c2nc3c(c(N4CCCCCC4)n2)CCC3)c1 [Compound 53, 1-[2-(4-methoxypyridin-2-yl)-5H,6H,7H-cyclopenta[d]pyrimidin-4-yl]azepane]
